Test: Concentration required for 50% inhibition of thrombin induced platelet aggregation
Type: functional

IC50: 9 nM
SMILES: C[C@@H]1CCN(C(=O)[C@H](CCCNC(=N)N)NS(=O)(=O)c2cccc3c2NC[C@H](C)C3)[C@@H](C(=O)O)C1 [ARGATROBAN]
